In one data set the target is MDM2-p53 complex (Homo sapiens, UniProt Q00987). The data set is described as follows: MDM2-p53 complex inhibition assay. It counts as binding. The following applies: for inhibition at 100 µM: read-out: Inhibition of MDM2-p53 complex formation (pre-treat).
Data set [1] relates to KSHV LANA latency antigen. It is filed as cell-based, Kaposi Sarcoma Herpesvirus (KSHV). The following applies: 100 μM, 6 days, BC3 cells, flow cytofluorometry.
Data set [2] can be described thus: Cytotoxicity on HUVEC cells. It counts as cell-based. As to conditions: human, HUVEC cells (primary human umbilical cord endothelial cells).
Data set [3] in a line: Cytotoxicity on THP-1 cells. It is filed as cell-based. As to conditions: human, THP-1 cells (KSHV-negative macrophage cell line).
A short description of data set [4]: Cytotoxicity on BC3 cells. It counts as cell-based. The following applies: human.
Data set [5] relates to latent KSHV DNA in BC3 cells. The data set is described as follows: qPCR detection of latent KSHV DNA. It is filed as cell-based, Kaposi Sarcoma Herpesvirus (KSHV). Background: In qPCR the cycle at which signal appears reflects the starting amount.

Results on five molecules are retold here after publication PMC6002838 (The Journal of antibiotics, 2017).

In brackets after ≈: the same amount, converted by molar mass.

The inhibition is the change of the read-out against control, counted positive when it falls. For orientation: CC50 means the concentration that lowers cell viability or growth by half. Read a high CC50 as lower toxicity to the cells.

MDM2-p53 complex, sequence (Q00987 whole entry, one chain of several): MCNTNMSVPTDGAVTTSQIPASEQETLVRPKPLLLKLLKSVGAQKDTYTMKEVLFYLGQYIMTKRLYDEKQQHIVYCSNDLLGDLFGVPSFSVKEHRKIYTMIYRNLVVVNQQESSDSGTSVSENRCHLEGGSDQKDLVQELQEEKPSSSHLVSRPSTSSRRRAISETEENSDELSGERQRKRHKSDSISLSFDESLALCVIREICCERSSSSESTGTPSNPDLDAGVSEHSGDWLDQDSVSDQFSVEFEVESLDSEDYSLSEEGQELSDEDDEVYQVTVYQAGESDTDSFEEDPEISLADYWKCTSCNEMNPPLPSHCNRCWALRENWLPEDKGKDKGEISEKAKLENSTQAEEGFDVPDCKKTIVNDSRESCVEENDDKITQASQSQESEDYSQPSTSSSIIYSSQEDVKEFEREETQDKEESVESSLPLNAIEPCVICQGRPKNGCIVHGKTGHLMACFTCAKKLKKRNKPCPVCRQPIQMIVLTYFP

For `Cc1cc(NS(=O)(=O)c2ccc(N)cc2)no1` [BC6, sulfamethoxazole], on MDM2-p53 complex, the inhibition at 100 µM was 50%.
For `CS(=O)(=O)Nc1ccc([N+](=O)[O-])cc1Oc1ccccc1` [Nimesulide, nimesulide], in data set [1], the LANA inhibition was determined as 54±5% and the “Residual fluorescence (RF)” value was “about 46%”.
Take `Nc1ccc(S(N)(=O)=O)cc1` [SA4, sulfanilamide]: in data set [1], the LANA inhibition came out at 78±6% and the “Residual fluorescence (RF)” value is listed as 21%. For the same molecule, the inhibition at 100 µM at MDM2-p53 complex came to 56%.
With `[H]/N=C(/N)NS(=O)(=O)c1ccc(N)cc1` [SG3, sulfaguanidine], the figures for the CC50 at 6 days in data set [2], in data set [3] and in data set [4] were 500 ± 125 µg/mL (≈ 2330 µM), 125 ± 31 µg/mL (≈ 583 µM) and 100 ± 25 µg/mL (≈ 467 µM), respectively. The “SI (CC50/EC50)” value in data set [5] turned out to be 4.76. Moreover, the inhibition at 100 µM at MDM2-p53 complex is around 48%.
For `Nc1ccc(S(=O)(=O)Nc2nccs2)cc1` [ST5, sulfathiazole], the CC50 at 6 days worked out at 250 ± 62 µg/mL (≈ 979 µM) in data set [2], 30 ± 15 µg/mL (≈ 117 µM) in data set [3] and 100 ± 25 µg/mL (≈ 392 µM) in data set [4]. In data set [5], the “SI (CC50/EC50)” value is 16.6. Further, at MDM2-p53 complex (100 μM, compounds added after formation of the complex), the “Disruption of MDM2-p53 complex (post-treat)” value is “about 48%”. On MDM2-p53 complex, the inhibition at 100 µM was around 70%.
